Laboratory results taken from US20080181866A1, “Amido Anti-viral Compounds” (Genelabs Technologies, Inc., priority 2006, published 2008).

Test system: HCV replication
Assay: HCV replicon assay (luciferase) in ET (Huh-lucubineo-ET) cell line
Assay type: cell-based
Details: Hepatitis C virus, tested at 5 μM; ET replicon cells; luciferase activity measured 48-72 hours later; relative to no compound control
Procedure, shortened: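 Huh-lucubineo-ET cells stably carry a subgenomic replicon with a firefly luciferase–ubiquitin–neo fusion and adaptive NS3-5B mutations; they were seeded 24 h before compound addition (0.1 nM–50 μM, 0.5% DMSO). Luciferase was read 48–72 h later as % inhibition versus no-compound control, with parallel WST-1 cytotoxicity. EC50 and TC50 came from 10-point 2-fold dilutions fitted to a Hill equation.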

Structure (SMILES) | inhibition at 5 µM [%]
O=C(NC1CC1)c1ccc(-c2csc(NC(=O)[C@@H]3CSC(C4CCOCC4)N3C(=O)C3CC3)n2)cc1 (some centres unmarked) [Compound 7085, 3-Cyclopropanecarbonyl-2-(tetrahydro-pyran-4-yl)-thiazolidine-4-carboxylic acid [4-(4-cyclopropylcarbamoyl-phenyl)-thiazol-2-yl]-amide] | 99.6
CC(C)(C)OC(=O)N1[C@@H](c2ccccc2)CC[C@H]1C(=O)Nc1nc(-c2ccc(C(=O)NC3CC3)cc2)cs1 [Compound 7005, (2S,5R)-2-[4-(4-Cyclopropylcarbamoyl-phenyl)-thiazol-2-ylcarbamoyl]-5-phenyl-pyrrolidine-1-carboxylic acid tert-butyl ester] | 97.8
